Here are results for one compound from paper PMC3211509 (Nanoscale Research Letters, 2011).

On the set-up of series [1]: method as in earlier work. As to conditions: oral, 1 compartment, first-order elimination ref 15; cited from earlier work.
The test system of series [2] is human vascular smooth muscle (VSM) cell. The arrangement: method as in PMID 11090543, PMID 11842228. Particulars: cited from earlier work.
Series [3] can be described thus: Drug absorbed in vivo after oral dose (Wagner-Nelson equation). As to conditions: rat, 30 mg/kg, at Cmax. The source says:
A model based on the Wagner-Nelson (W-N) equation was established in-house and was used to calculate the drug absorbed to further assess the amount of drug absorbed as a function of time. The utilization of the W-N equation allows us to obtain all the drug that is absorbed (including excreted) at different time points. This allowed us to estimate the relationship and the impact on the absorption on the surface area changes of the drug. [drawing 2] [drawing 3]
where A is the drug absorbed, V is the volume of distribution, Cp is the plasma concentration, K is the elimination rate constant, and t is time.
In order to understand the degree of improvement provided by an oral nanosuspension formulation, simulations were performed using a Wagner-Nelson equation-based model that was established in-house in order to assess the amount of drug absorbed (dA) as a function of time. In this model, the stomach empting time was taking into consideration. […] The unit surface area by weight (A/W) was calculated to estimate the surface area reduction after the absorption took place, and the total residual surface area (RA) was calculated for each time point. The absorption efficiency (AE) was calculated by taking the ratio of the amount of drug available and was divided by the RA (AE = W/RA), and the absorption constant (K) was calculated as AE/δT. […]

Details of series [4]: method as in printed. Particulars: ref not given; cited from earlier work.
The subject of series [5] is spontaneously hypertensive rats. The arrangement: method as in printed. Particulars: reported, ref not given; cited from earlier work.

As to `O=C(NC1CCCCC1)NC1CCCCC1` [DCU, 1,3-Dicyclohexylurea], in series [1], the “K01 (absorption rate constant)” value is 26.3 h⁻¹, the “K10 (elimination rate constant)” value is 0.277 h⁻¹ and the Vf is given as 5.8 L. For the same compound, the “human VSM cell proliferation” value in series [2] is “inhibits human vascular smooth muscle (VSM) cell proliferation in a dose-dependent manner”. Further, the “Drug absorbed, In vivo (Wagner-Nelson equation)” value in series [3] is reported as 1.1 mg. The “free fraction in plasma (unbound)” value in series [4] is 3%. Besides, the “effect on systemic blood pressure” value in series [5] is listed as “lower systemic blood pressure”.
